For experiment [1], the target named is human Adenosine A1 receptor (Homo sapiens (Human), UniProt P30542). As to the kind of experiment: Adenosine receptor TR-FRET binding assay (A1). As to conditions: inhibition of binding of 100 nM CA200645, CHO cell membranes. In short, it runs like this:
(§1)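 Ki values come from Cheng–Prusoff conversion of IC50s for displacement of fluorescent antagonist CA200645 from terbium-labelled human adenosine receptors in CHO membranes. Tracer was 30 nM at A2b and 100 nM at the other three subtypes; incubation lasted 2 h at room temperature.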
(TR-FRET usually uses a lanthanide donor and a delayed reading to cut background.)

For experiment [2], the system named is CD8+T cells in human whole blood. Put plainly: Measurement of pCREB in CD8+T cells in human whole blood. In kind it is cell-based. The conditions noted are these: 3 μM NECA, rolipram. The procedure, abridged: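 Heparinised human whole blood pre-incubated 20 min at 37 °C with serially diluted A2a antagonists plus rolipram, then stimulated 60 min with 3 μM NECA (final). After fixation and red-cell lysis, white cells were permeabilized and stained for phospho-CREB and CD8; pCREB in CD8+ T cells measured by flow cytometry.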

A further experiment relates to human PBMCs. As to the kind of experiment: CD3/CD28 stimulated IL-2 release NECA reversal assay in human PBMCs. The conditions noted are these: PBMC, 1 uM NECA, 24 hours, IL-2 in culture supernatant. The format is cell-based. The procedure, abridged: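 PBMCs from citrated healthy-donor blood plated at 50,000 cells/well on 1 ug/ml CD3 antibody with 1 ug/ml CD28 antibody, 1 uM NECA and 0.003-10 μM antagonist (final), 24 h at 37° C. Supernatant IL-2 measured by MSD immunoassay; % inhibition set against no-NECA control wells as 100%.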

Experiment [3] addresses human Adenosine A2a receptor (Homo sapiens (Human), UniProt P29274). As to the kind of experiment: Adenosine receptor TR-FRET binding assay (A2a). As to conditions: inhibition of binding of 100 nM CA200645, CHO cell membranes. In short, it runs like this:
as §1

The target of experiment [4] is human Adenosine A2b receptor (Homo sapiens (Human), UniProt P29275). Put plainly: Adenosine receptor TR-FRET binding assay (A2b). As to conditions: TR-FRET, inhibition of binding of 30 nM CA200645, CHO cell membranes. The procedure, abridged: as §1
human Adenosine A2b receptor, sequence (P29275 whole entry): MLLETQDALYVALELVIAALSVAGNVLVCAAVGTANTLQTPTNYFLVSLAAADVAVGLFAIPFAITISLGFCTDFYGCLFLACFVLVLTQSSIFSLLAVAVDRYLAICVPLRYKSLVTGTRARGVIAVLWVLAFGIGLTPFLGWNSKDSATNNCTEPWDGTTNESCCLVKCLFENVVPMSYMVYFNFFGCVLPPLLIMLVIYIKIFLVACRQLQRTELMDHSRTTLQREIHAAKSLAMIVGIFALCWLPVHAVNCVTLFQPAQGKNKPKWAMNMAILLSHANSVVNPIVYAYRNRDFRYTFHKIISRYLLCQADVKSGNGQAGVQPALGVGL
For experiment [5], the target named is human Adenosine A3 receptor (Homo sapiens (Human), UniProt P0DMS8). As to the kind of experiment: Adenosine receptor TR-FRET binding assay (A3). As to conditions: inhibition of binding of 100 nM CA200645, CHO cell membranes. In short, it runs like this: as §1
human Adenosine A3 receptor, sequence (P0DMS8 whole entry): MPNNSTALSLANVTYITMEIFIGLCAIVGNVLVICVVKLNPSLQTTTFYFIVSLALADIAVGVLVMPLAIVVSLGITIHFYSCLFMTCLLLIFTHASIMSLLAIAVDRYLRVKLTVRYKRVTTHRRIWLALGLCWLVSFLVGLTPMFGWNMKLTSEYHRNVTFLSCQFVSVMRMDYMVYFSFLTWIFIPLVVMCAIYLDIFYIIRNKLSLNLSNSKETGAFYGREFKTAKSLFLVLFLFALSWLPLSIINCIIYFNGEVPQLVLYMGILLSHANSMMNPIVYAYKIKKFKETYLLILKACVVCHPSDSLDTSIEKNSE
In experiment [6] the test system is immature monocyte-derived dendritic cells (MoDC). Put plainly: MoDC pCREB assay. In kind it is cell-based, human. As to conditions: Homo sapiens, Dendritic cell; pCREB in immature MoDC, 1 μM NECA, rolipram. The method, then: Monocytes are isolated from human whole blood using CD14 microbeads (Miltenyi Biotec 130-050-201) and differentiated to immature monocyte-derived dendritic cells (MoDC) by culture for 5 days in Mo-DC Differentiation Medium (Miltenyi Biotec 130-094-812). MoDCs are seeded into fresh medium into U bottomed 96 well culture plates and pre-incubated at 37° C. with serial dilutions of A2A/B antagonists for 15 min. At the same time the cells are co-incubated with the phosphodiesterase inhibitor rolipram (final concentration of 20 µM) to amplify the subsequent pCREB response. Adenosine receptor agonist NECA is then added at 1 μM final concentration, leading to an increase in CREB phosphorylation. Following a 45 min incubation at 37° C., the cells are fixed, permeabilized and stained with directly conjugated fluorescent antibodies to phospho-CREB (Alexa Fluor 488), CD209 (PerCP-Cy5.5) and CD86 (APC). Samples are analysed by FACS to measure fluorescence in corresponding channels, and also forward and Side scatter. The population of CD209+/CD86− low cells corresponding to immature dendritic cells is gated for analysis of pCREB levels.
Approximately 5% of the analysed cells are positive for detection of pCREB in the absence of agonist stimulation, representing the background signalling of all pathways upstream of CREB. Following NECA stimulation this is increased to ˜80% pCREB+ve, and this increase is essentially fully reversible by A2B or dual A2A/B antagonists.
IC50 is represented as the point of inflection of a sigmoidal curve

The source of these data is patent US20230293517A1, “ANTAGONIST COMPOUNDS” (AdoRx Therapeutics Limited, priority 2020, published 2023).

human Adenosine A2a receptor, sequence (P29274 whole entry): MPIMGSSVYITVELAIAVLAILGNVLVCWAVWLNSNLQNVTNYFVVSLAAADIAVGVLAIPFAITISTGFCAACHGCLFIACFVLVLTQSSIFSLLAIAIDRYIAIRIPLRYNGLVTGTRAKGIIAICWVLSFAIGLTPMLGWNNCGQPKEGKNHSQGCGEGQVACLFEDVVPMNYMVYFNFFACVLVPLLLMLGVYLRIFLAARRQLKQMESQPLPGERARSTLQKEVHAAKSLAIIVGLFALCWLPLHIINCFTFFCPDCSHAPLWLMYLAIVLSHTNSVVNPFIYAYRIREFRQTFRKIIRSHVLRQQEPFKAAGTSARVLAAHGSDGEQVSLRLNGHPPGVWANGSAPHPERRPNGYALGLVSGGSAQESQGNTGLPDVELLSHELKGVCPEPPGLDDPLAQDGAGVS
human Adenosine A1 receptor, sequence (P30542 whole entry): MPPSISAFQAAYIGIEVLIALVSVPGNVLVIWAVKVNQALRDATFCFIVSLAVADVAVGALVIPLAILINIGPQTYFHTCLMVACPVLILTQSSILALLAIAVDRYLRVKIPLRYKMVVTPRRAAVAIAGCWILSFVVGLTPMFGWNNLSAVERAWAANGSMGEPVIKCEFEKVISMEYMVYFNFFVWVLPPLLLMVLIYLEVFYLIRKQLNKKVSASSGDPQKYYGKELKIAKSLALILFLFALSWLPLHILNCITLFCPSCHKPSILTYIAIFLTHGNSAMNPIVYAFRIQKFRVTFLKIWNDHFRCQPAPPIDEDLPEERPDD

As to `Cc1cc(-c2sc(NC(=O)N3CCC(C#N)(C#N)CC3)nc2-c2cccc(C#N)c2)cc(C)n1` [Example 4.32, 4,4-Dicyano-N-[4-(3-cyanophenyl)-5-(2,6-dimethyl-4-pyridyl)thiazol-2-yl]piperidine-1-carboxamide], the Ki in experiment [1] is 26 nM; in experiment [3], 0.15 nM; in experiment [4], 1.1 nM; in experiment [5] it was 457 nM. Besides, the figures for the IC50 (in experiment [2]; in the experiment on human PBMCs; in experiment [6]) were 60 nM, 0.7 nM and 14 nM, respectively.
Take `Cc1cc(-c2sc(NC(=O)N3CC4(COC4)C3)nc2-c2cccc(C#N)c2)cc(C(F)(F)F)n1` [Example 6.99, N-[4-(3-Cyanophenyl)-5-[2-methyl-6-(trifluoromethyl)-4-pyridyl]thiazol-2-yl]-2-oxa-6-azaspiro[3.3]heptane-6-carboxamide]: the Ki in experiment [1] was determined as 14 nM; in experiment [3] it was 0.13 nM; in experiment [4], 0.7 nM; in experiment [5] it was 77 nM. Moreover, the IC50 in experiment [2] is 40 nM; with human PBMCs, 0.7 nM; in experiment [6], 8 nM.
For `[2H]C([2H])([2H])c1cc(-c2sc(NC(=O)N3CCC(C)(C#N)CC3)nc2-c2cccc(C#N)c2)cc(C([2H])([2H])[2H])n1` [Example 28, N-[5-[2,6-Bis(trideuteriomethyl)-4-pyridyl]-4-(3-cyanophenyl)thiazol-2-yl]-4-cyano-4-methyl-piperidine-1-carboxamide], the Ki in experiment [1] was 30 nM; in experiment [3] it was 0.09 nM; in experiment [4], 1 nM; in experiment [5], 381 nM. For the same compound, the IC50 in experiment [2] was determined as 60 nM; in the experiment on human PBMCs it was 0.4 nM; in experiment [6] it was 9 nM.
For the compound `Cc1cc(-c2sc(NC(=O)N3CCC(C#N)(C#N)CC3)nc2-c2cccc(C#N)c2)cc(CO)n1` [Example 9.8], the Ki in experiment [1] came to 24 nM; in experiment [3], 0.37 nM; in experiment [4], 2.4 nM; in experiment [5], 615 nM. The IC50 is 10 nM in experiment [2], 0.7 nM in the experiment with human PBMCs and 8 nM in experiment [6].
For `Cc1cc(-c2sc(NC(=O)N3CCC4(CC3)C(=O)N(C)C(=O)N4C)nc2-c2cccc(C#N)c2)cc(C)n1` [Example 4.28, N-[4-(3-Cyanophenyl)-5-(2,6-dimethyl-4-pyridyl)thiazol-2-yl]-1,3-dimethyl-2,4-dioxo-1,3,8-triazaspiro[4.5]decane-8-carboxamide], the Ki in experiment [1] was 135 nM; in experiment [3] it was 0.48 nM; in experiment [4] it was 2.4 nM; in experiment [5], 77 nM. The IC50 is 670 nM in experiment [2], 4.7 nM with human PBMCs and 10 nM in experiment [6].
For `Cc1cc(-c2sc(NC(=O)N3CC4(CCOC4)C3)nc2-c2cccc(C#N)c2)cc(C)n1` [Example 6.53, N-[4-(3-Cyanophenyl)-5-(2,6-dimethyl-4-pyridyl)thiazol-2-yl]-6-oxa-2-azaspiro[3.4]octane-2-carboxamide], the Ki stood at 110 nM in experiment [1], 0.27 nM in experiment [3], 1.6 nM in experiment [4] and 662 nM in experiment [5]. Moreover, the IC50 came out at 130 nM in experiment [2], 2.5 nM in the experiment with human PBMCs and 40 nM in experiment [6].
With `Cc1cc(-c2sc(NC(=O)N3CC[C@@H](C(C)(C)O)C3)nc2-c2cccc(C#N)c2)cc(C)n1` [Example 6.36, (3R)-N-[4-(3-Cyanophenyl)-5-(2,6-dimethyl-4-pyridyl)thiazol-2-yl]-3-(1-hydroxy-1-methyl-ethyl)pyrrolidine-1-carboxamide], the Ki in experiment [1] came out at 133 nM; in experiment [3], 0.87 nM; in experiment [4], 4.2 nM; in experiment [5], 377 nM. The IC50 in experiment [2] turned out to be 90 nM; in the experiment with human PBMCs it was 4.2 nM; in experiment [6], 16 nM.
For the compound `Cc1cc(-c2sc(NC(=O)N3CCC(C)(C#N)CC3)nc2-c2cccc(C#N)c2)cc(Cl)n1` [Example 3.8], the Ki in experiment [1] came out at 116 nM; in experiment [3], 0.09 nM; in experiment [4] it was 0.9 nM; in experiment [5] it was 538 nM. Besides, the figures for the IC50 (in experiment [2]; in the experiment with human PBMCs; in experiment [6]) were 750 nM, 1 nM and 11 nM, respectively.
On to `Cc1cc(-c2sc(NC(=O)N3CC[S+]([O-])CC3)nc2-c2cccc(C#N)c2)cc(C)n1` [Example 4.24, N-[4-(3-Cyanophenyl)-5-(2,6-dimethyl-4-pyridyl)thiazol-2-yl]-1-oxo-1,4-thiazinane-4-carboxamide], for which the Ki in experiment [1] is 15 nM; in experiment [3], 0.18 nM; in experiment [4] it was 2.4 nM; in experiment [5], 383 nM. The IC50 worked out at 80 nM in experiment [2], 2.8 nM with human PBMCs and 79 nM in experiment [6].
As for `Cc1cc(-c2sc(NC(=O)N3CCN(C4COC4)CC3)nc2-c2cccc(C#N)c2)cc(C)n1` [Example 4.4, N-[4-(3-Cyanophenyl)-5-(2,6-dimethyl-4-pyridyl)thiazol-2-yl]-4-(oxetan-3-yl)piperazine-1-carboxamide], the Ki in experiment [1] was 263 nM; in experiment [3], 0.86 nM; in experiment [4], 4.5 nM; in experiment [5], 568 nM. Also, the IC50 in experiment [2] worked out at 170 nM; in the experiment on human PBMCs it was 6.2 nM; in experiment [6], 95 nM.
As for `Cc1cc(-c2sc(NC(=O)N3CC4(COC4)C3)nc2-c2cccc(C#N)c2)cc(C2CC2)n1` [Example 16.7], the Ki stood at 13 nM in experiment [1], 0.13 nM in experiment [3], 1.6 nM in experiment [4] and 478 nM in experiment [5]. In addition, the IC50 in experiment [2] is 60 nM; in the experiment with human PBMCs, 0.9 nM; in experiment [6], 14 nM.
In the case of `Cc1cc(-c2sc(NC(=O)N3CCC(C#N)CC3)nc2-c2cccc(C#N)c2)cc(C)n1` [Example 4.1, 4-Cyano-N-[4-(3-cyanophenyl)-5-(2,6-dimethyl-4-pyridyl)thiazol-2-yl]piperidine-1-carboxamide], the Ki in experiment [1] worked out at 11 nM; in experiment [3], 0.11 nM; in experiment [4] it was 0.6 nM; in experiment [5], 145 nM. The IC50 in experiment [2] is 10 nM; in the experiment on human PBMCs it was 0.3 nM; in experiment [6], 15 nM.
On to `Cc1cc(-c2sc(NC(=O)N3CC[C@](C)(C#N)C3)nc2-c2cccc(C#N)c2)cc(C)n1` [Example 27b, (3S)-3-cyano-N-[4-(3-cyanophenyl)-5-(2,6-dimethyl-4-pyridyl)thiazol-2-yl]-3-methyl-pyrrolidine-1-carboxamide], for which the Ki turned out to be 33 nM in experiment [1], 0.14 nM in experiment [3], 1 nM in experiment [4] and 271 nM in experiment [5]. For the same compound, the IC50 is 40 nM in experiment [2], 1 nM in the experiment with human PBMCs and 4 nM in experiment [6].
For the compound `Cc1cc(-c2sc(NC(=O)N3CCC(C)(C#N)CC3)nc2-c2cccc(C#N)c2)cc(CO)n1` [Example 24, 4-Cyano-N-[4-(3-cyanophenyl)-5-[2-(hydroxymethyl)-6-methyl-4-pyridyl]thiazol-2-yl]-4-methyl-piperidine-1-carboxamide], the Ki was 71 nM in experiment [1], 0.24 nM in experiment [3], 2.7 nM in experiment [4] and 683 nM in experiment [5]. Besides, the IC50 is 20 nM in experiment [2], 1.6 nM in the experiment with human PBMCs and 21 nM in experiment [6].
Regarding `Cc1cc(-c2sc(NC(=O)N3CCC(C#N)(CO)CC3)nc2-c2cccc(C#N)c2)cc(C)n1` [Example 4.23, 4-Cyano-N-[4-(3-cyanophenyl)-5-(2,6-dimethyl-4-pyridyl)thiazol-2-yl]-4-(hydroxymethyl)piperidine-1-carboxamide], the Ki in experiment [1] is 54 nM; in experiment [3], 0.2 nM; in experiment [4], 0.7 nM; in experiment [5], 267 nM. Also, the IC50 in experiment [2] was 30 nM; in the experiment on human PBMCs it was 0.6 nM; in experiment [6], 20 nM.

The term Ki denotes the dissociation constant of the complex between target and ligand, obtained from inhibition or displacement. The term IC50 denotes the concentration that gives 50% inhibition.
